Source: US20210253511A1, “COMPOUNDS AND USES FOR THE TREATMENT AND PREVENTION OF DISEASES AND CONDITIONS ASSOCIATE WITH OR AGGREVATED BY IMPARED MITOPHAGY” (Yissum Research Development Company of The Hebrew …, priority 2018, published 2021)
Entries after “also recorded” stand apart in the source; their conditions may differ.

Tests used:
[1] = test system: C. elegans worms in 200 mM paraquat (PQ); assay: Paraquat survival assay; format: in vivo; details: 200 mM PQ
Method: C. elegans strains were grown at 21° C. on nematode growth media (NGM) agar plates containing diamines or vehicle as a control. The NGM agar plates were prepared as described in L. Livshits, E. Gross, A method for measuring sulfide toxicity in the nematode Caenorhabditis elegans, MethodsX 4 (2017) 250-255. A suspension of 3 g sodium chloride (NaCl), 20 g Bacto agar, and 2.5 g of Bacto peptone in 1 L of double distilled water (DDW) was mixed and autoclaved. Then, the medium was cooled to 55° C. and supplemented with 1 ml of 100 mM CaCl2), 1 ml of 100 mM MgSO4, 25 ml of 1 M potassium phosphate buffer pH 6, and 1 ml of 5 mg/ml cholesterol (the cholesterol was dissolved in ethanol). Diamines or DDW (vehicle) were added to the NGM-agar solution. For RNAi NGM-agar plates, Isopropyl β-D-1-thiogalactopyranoside (IPTG) and ampicillin were added to a final concentration of 1 mM and 100 μg/ml, respectively. The NGM-agar solution was thoroughly vortex mixed and immediately poured into 35 mm petri dish (4 ml per plate). NGM-plates were covered with aluminum foil and dried for 24 h at room temperature (RT). 24 h before the experiment, plates were seeded with 100 μl bacteria (OD600=0.6, OP50 or HT115(DE3)). The seeded plates were covered with aluminum foil and dried for 24 h at RT.
To get synchronized C. elegans larvae, the method described in W. B. Wood, The Nematode Caenorhabditis Elegans, Cold Spring Harbor Laboratory 1988, was performed. In brief, hypochlorite/NaOH solution was made by mixing 1 ml of 5% solution of sodium hypochlorite, 800 μl of 2.5 N NaOH and 2.2 ml DDW to final concentrations of 0.5 N NaOH and 1.25% sodium hypochlorite. M9 buffer was made by dissolving 3 g KH2PO4, 6 g Na2HPO4, 5 g NaCl and 1 ml of MgSO4 from 1M stock in 1 litter of DDW. The solution pH was adjusted to 7 and sterilizes by filtration (with a 0.2 µm filter bottle). Gravid hermaphrodites was washed from the NGM plates into a 15 ml tube with M9 buffer and centrifuged for 2 min at 900×g, RT. Liquid was removed until 2 ml worms' suspension was left and added 2 ml of hypochlorite/NaOH solution. A 5 ml syringe with a 21-gauge needle was used to aspirate the worm suspension back and forth several times. After 3 min it was observed the state of the worms using a dissecting stereoscope. At this stage, approximately 50% of worms should appear broken and many of the embryos should float in the solution. The embryos were immediately sedimented using centrifugation (1690×g for 2 min) and carefully removed the supernatant and add 10 ml of M9 buffer. This washing step was repeated three additional times. The supernatant was removed until 2 ml remains and rotated the tube for 16 h at RT. The hatched L larvae were collected by centrifugation (1690×g for 3 min) and put ˜80 L in each seeded NGM assay plate. Grow the L1 (Day 1) for 3 days until they become young adults (Day 3).

[2] = test system: mitophagy in C. elegans muscles; assay: Mitophagy imaging with Mito-Rosella sensor; format: in vivo; details: 1 mM; L4 Rosella worms; 21° C.
From the text: FIGS. 8A-8F. (FIG. 8A) is a schematic illustration of the Mito-Rosella sensor function. The Mito-Rosella sensor contains an N-terminal mitochondrial targeting signal, a pH-stable red fluorescent protein and a C-terminal pH-sensitive green fluorescent protein. In non-acidic environment the green to red fluorescent ratio is 0.6-0.8. However, in the autolysosome, where the pH is low, the green fluorescent is quenched and the green to red ratio is decreased to 0.2-0.5. By measuring the mitochondria red and green fluorescence, it was possible to monitor mitophagy in live worms. […] A bar graph presenting the results of mitophagy imaging experiments. L4 larval worms were treated with either 8 mM paraquat or 1 mM 1,8-Diaminooctane for 16 h, at 21° C. Control worms were treatment with similar volume of distilled water and incubated under similar conditions. Asterisks indicate significance for comparisons with control worms. […]
The Mito-Rosella sensor is composed of an N-terminal mitochondrial targeting sequence followed by a pH-insensitive red fluorescent protein (DsRed.T3) and a pH-sensitive green fluorescent protein (pHluorin) (FIG. 8A). In intact mitochondria the green to red fluorescence ratio is high (between 0.6-0.8). However, upon acidification in autolysosome (where mitochondria are degraded) the green fluorescence is quenched and thus the ration is decreased to 0.2-0.5.

Q: How did the “survival of worms in paraquat” value ([1]; 0.0625, 0.25, 1 and 4 mM (all treatments), L1 to young adult (~48 h), vs distilled-water control, log-rank p<0.0001) turn out when `NCCCCCCCCN` [1,8-Diaminooctane] was run?
A: increase the survival of worms significantly; also recorded: significantly increases the resistance to paraquat toxicity in a dose-dependent manner

Q: What about the “survival of worms in paraquat” value ([1]; compound at 4 mM, vs control worms) of the same molecule?
A: best protection

Q: What about the “survival of worms in paraquat” value ([1]; tested at 0.0625 mM and 0.25 mM, not split) of the same molecule?
A: significantly improved the survival of worms in PQ

Q: What about the “mitophagy response (Mito-Rosella green to red fluorescence ratio)” value [2] of the same molecule?
A: strong mitophagy response
